What was measured:
[1] = tested on: Mec-1 cells; assay: Cell growth curves over 12 days, Mec-1; assay type: cell-based; details: for anti-proliferative potency compared to PRT382: Mec-1
Protocol: (§1) Live cells/mL were counted on days 3, 6, 10, and 12. […] The split factor was calculated at indicated time points by dividing the counted cells/mL by 3E5. Cell growth was extrapolated over time by multiplying the subsequent cell count by the previous split factor. Cell growth is plotted as fold change relative to DMSO-treated cells.

[2] = tested on: HG3 cells; assay: Cell growth curves over 12 days, HG3; assay type: cell-based; details: for anti-proliferative potency compared to PRT382: HG3
Protocol: as §1

Structure (SMILES): Nc1nc2cc(CC[C@H]3C[C@@H](n4ccc5c(N)ncnc54)[C@H](O)[C@@H]3O)ccc2cc1Br [JNJ-64619178]
- Rep 1 Live Cells [Fold Change] ([1]; Mec-1, 1 nM, day 0): 1 Fold Change
- Rep 2 Live Cells [Fold Change] ([1]; Mec-1, 1 nM, day 0): 1 Fold Change
- Rep 1 Live Cells [Fold Change] ([1]; Mec-1, 1 nM, day 3): 6.73 Fold Change
- Rep 2 Live Cells [Fold Change] ([1]; Mec-1, 1 nM, day 3): 5.77 Fold Change
- Rep 1 Live Cells [Fold Change] ([1]; Mec-1, 1 nM, day 6): 33.4 Fold Change
- Rep 2 Live Cells [Fold Change] ([1]; Mec-1, 1 nM, day 6): 34.4 Fold Change
- Rep 1 Live Cells [Fold Change] ([1]; Mec-1, 1 nM, day 10): 194 Fold Change
- Rep 2 Live Cells [Fold Change] ([1]; Mec-1, 1 nM, day 10): 282 Fold Change
- Rep 1 Live Cells [Fold Change] ([1]; Mec-1, 1 nM, day 12): 737 Fold Change
- Rep 2 Live Cells [Fold Change] ([1]; Mec-1, 1 nM, day 12): 940 Fold Change
- Rep 1 Live Cells [Fold Change] ([1]; Mec-1, 10 nM, day 0): 1 Fold Change
- Rep 2 Live Cells [Fold Change] ([1]; Mec-1, 10 nM, day 0): 1 Fold Change
- Rep 1 Live Cells [Fold Change] ([1]; Mec-1, 10 nM, day 3): 4.7 Fold Change
- Rep 2 Live Cells [Fold Change] ([1]; Mec-1, 10 nM, day 3): 4.73 Fold Change
- Rep 1 Live Cells [Fold Change] ([1]; Mec-1, 10 nM, day 6): 4.72 Fold Change
- Rep 2 Live Cells [Fold Change] ([1]; Mec-1, 10 nM, day 6): 5.92 Fold Change
- Rep 1 Live Cells [Fold Change] ([1]; Mec-1, 10 nM, day 10): 4.93 Fold Change
- Rep 2 Live Cells [Fold Change] ([1]; Mec-1, 10 nM, day 10): 4.62 Fold Change
- Rep 1 Live Cells [Fold Change] ([1]; Mec-1, 10 nM, day 12): 3.86 Fold Change
- Rep 2 Live Cells [Fold Change] ([1]; Mec-1, 10 nM, day 12): 2.38 Fold Change
- Rep 1 Live Cells [Fold Change] ([1]; Mec-1, 100 nM, day 0): 1 Fold Change
- Rep 2 Live Cells [Fold Change] ([1]; Mec-1, 100 nM, day 0): 1 Fold Change
- Rep 1 Live Cells [Fold Change] ([1]; Mec-1, 100 nM, day 3): 4.17 Fold Change
- Rep 2 Live Cells [Fold Change] ([1]; Mec-1, 100 nM, day 3): 4.67 Fold Change
- Rep 1 Live Cells [Fold Change] ([1]; Mec-1, 100 nM, day 6): 3.53 Fold Change
- Rep 2 Live Cells [Fold Change] ([1]; Mec-1, 100 nM, day 6): 4.53 Fold Change
- Rep 1 Live Cells [Fold Change] ([1]; Mec-1, 100 nM, day 10): 2.56 Fold Change
- Rep 2 Live Cells [Fold Change] ([1]; Mec-1, 100 nM, day 10): 2.9 Fold Change
- Rep 1 Live Cells [Fold Change] ([1]; Mec-1, 100 nM, day 12): 1.15 Fold Change
- Rep 2 Live Cells [Fold Change] ([1]; Mec-1, 100 nM, day 12): 1.27 Fold Change
- Rep 1 Live Cells [Fold Change] ([1]; Mec-1, 1 µM, day 0): 1 Fold Change
- Rep 2 Live Cells [Fold Change] ([1]; Mec-1, 1 µM, day 0): 1 Fold Change
- Rep 1 Live Cells [Fold Change] ([1]; Mec-1, 1 µM, day 3): 1.48 Fold Change
- Rep 2 Live Cells [Fold Change] ([1]; Mec-1, 1 µM, day 3): 1.38 Fold Change
- Rep 1 Live Cells [Fold Change] ([1]; Mec-1, 1 µM, day 6): 0.841 Fold Change
- Rep 2 Live Cells [Fold Change] ([1]; Mec-1, 1 µM, day 6): 2.27 Fold Change
- Rep 1 Live Cells [Fold Change] ([1]; Mec-1, 1 µM, day 10): 1.28 Fold Change
- Rep 2 Live Cells [Fold Change] ([1]; Mec-1, 1 µM, day 10): 1.57 Fold Change
- Rep 1 Live Cells [Fold Change] ([1]; Mec-1, 1 µM, day 12): 0.808 Fold Change
- Rep 2 Live Cells [Fold Change] ([1]; Mec-1, 1 µM, day 12): 0.765 Fold Change
- anti-proliferative potency compared to PRT382 ([1]; high doses (1µM)): similar
- anti-proliferative potency compared to PRT382 ([1]; lower doses (10nM, 100nM)): more potent
- Rep 1 Live Cells [Fold Change] ([2]; HG3, 1 nM, day 0): 1 Fold Change
- Rep 2 Live Cells [Fold Change] ([2]; HG3, 1 nM, day 0): 1 Fold Change
- Rep 1 Live Cells [Fold Change] ([2]; HG3, 1 nM, day 3): 6.233 Fold Change
- Rep 2 Live Cells [Fold Change] ([2]; HG3, 1 nM, day 3): 6.733 Fold Change
- Rep 1 Live Cells [Fold Change] ([2]; HG3, 1 nM, day 6): 33.0367 Fold Change
- Rep 2 Live Cells [Fold Change] ([2]; HG3, 1 nM, day 6): 39.5022 Fold Change
- Rep 1 Live Cells [Fold Change] ([2]; HG3, 1 nM, day 10): 290.723 Fold Change
- Rep 2 Live Cells [Fold Change] ([2]; HG3, 1 nM, day 10): 314.043 Fold Change
- Rep 1 Live Cells [Fold Change] ([2]; HG3, 1 nM, day 12): 802.395 Fold Change
- Rep 2 Live Cells [Fold Change] ([2]; HG3, 1 nM, day 12): 1088.68 Fold Change
- Rep 1 Live Cells [Fold Change] ([2]; HG3, 10 nM, day 0): 1 Fold Change
- Rep 2 Live Cells [Fold Change] ([2]; HG3, 10 nM, day 0): 1 Fold Change
- Rep 1 Live Cells [Fold Change] ([2]; HG3, 10 nM, day 3): 4.733 Fold Change
- Rep 2 Live Cells [Fold Change] ([2]; HG3, 10 nM, day 3): 5.9 Fold Change
- Rep 1 Live Cells [Fold Change] ([2]; HG3, 10 nM, day 6): 4.86 Fold Change
- Rep 2 Live Cells [Fold Change] ([2]; HG3, 10 nM, day 6): 7.375 Fold Change
- Rep 1 Live Cells [Fold Change] ([2]; HG3, 10 nM, day 10): 4.276 Fold Change
- Rep 2 Live Cells [Fold Change] ([2]; HG3, 10 nM, day 10): 8.039 Fold Change
- Rep 1 Live Cells [Fold Change] ([2]; HG3, 10 nM, day 12): 4.945 Fold Change
- Rep 2 Live Cells [Fold Change] ([2]; HG3, 10 nM, day 12): 8.633 Fold Change
- Rep 1 Live Cells [Fold Change] ([2]; HG3, 100 nM, day 0): 1 Fold Change
- Rep 2 Live Cells [Fold Change] ([2]; HG3, 100 nM, day 0): 1 Fold Change
- Rep 1 Live Cells [Fold Change] ([2]; HG3, 100 nM, day 3): 4.133 Fold Change
- Rep 2 Live Cells [Fold Change] ([2]; HG3, 100 nM, day 3): 5.6 Fold Change
- Rep 1 Live Cells [Fold Change] ([2]; HG3, 100 nM, day 6): 4.064 Fold Change
- Rep 2 Live Cells [Fold Change] ([2]; HG3, 100 nM, day 6): 5.619 Fold Change
- Rep 1 Live Cells [Fold Change] ([2]; HG3, 100 nM, day 10): 2.5 Fold Change
- Rep 2 Live Cells [Fold Change] ([2]; HG3, 100 nM, day 10): 4.6354 Fold Change
- Rep 1 Live Cells [Fold Change] ([2]; HG3, 100 nM, day 12): 1.958 Fold Change
- Rep 2 Live Cells [Fold Change] ([2]; HG3, 100 nM, day 12): 5.387 Fold Change
- Rep 1 Live Cells [Fold Change] ([2]; HG3, 1 µM, day 0): 1 Fold Change
- Rep 2 Live Cells [Fold Change] ([2]; HG3, 1 µM, day 0): 1 Fold Change
- Rep 1 Live Cells [Fold Change] ([2]; HG3, 1 µM, day 3): 1.6 Fold Change
- Rep 2 Live Cells [Fold Change] ([2]; HG3, 1 µM, day 3): 2.303 Fold Change
- Rep 1 Live Cells [Fold Change] ([2]; HG3, 1 µM, day 6): 1.024 Fold Change
- Rep 2 Live Cells [Fold Change] ([2]; HG3, 1 µM, day 6): 1.536 Fold Change
- Rep 1 Live Cells [Fold Change] ([2]; HG3, 1 µM, day 10): 3.369 Fold Change
- Rep 2 Live Cells [Fold Change] ([2]; HG3, 1 µM, day 10): 0.4381 Fold Change
- Rep 1 Live Cells [Fold Change] ([2]; HG3, 1 µM, day 12): 2.347 Fold Change
- Rep 2 Live Cells [Fold Change] ([2]; HG3, 1 µM, day 12): 3.411 Fold Change
- anti-proliferative potency compared to PRT382 ([2]; high doses (1µM)): similar
- anti-proliferative potency compared to PRT382 ([2]; lower doses (10nM, 100nM)): more potent

— article PMC9823097, “Dysregulation of PRMT5 in chronic lymphocytic leukemia promotes progression with high risk of Richter’s transformation” (Nature Communications, 2023)
